Laboratory results published in ChEMBL document CHEMBL1201862, “PubChem BioAssay data set” (2004).
Calls of active or inactive are those of the source.

Tests used:
[1] = microbe, parasite or virus in culture; type: functional; settings: Mycobacterium tuberculosis
[2] = HepG2 cell cytotoxicity, dose response, cytotoxicity control for Shn3 inhibitor project, CellTiter-Glo, cherry-picked (AID 624134); type: functional, cell-based
[3] = control 3'UTR Renilla luciferase suppression, dose response, counter-screen for Shn3 inhibitor project, cell-based, Clone20-Shn3RL, cherry-picked (AID 624133); type: functional
[4] = Shn3 3'UTR reporter inhibitors, dose response, cell-based, Clone20 osteoblasts, firefly luciferase, cherry-picked (AID 624132); type: functional;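 also: firefly luciferase luminescence from reporter carrying the Shn3 3'UTR in osteoblasts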
[5] = target: Cytochrome P450 2C9 (Homo sapiens, UniProt P11712)
Sequence of Cytochrome P450 2C9 (P11712 whole entry, the tested form may be a part): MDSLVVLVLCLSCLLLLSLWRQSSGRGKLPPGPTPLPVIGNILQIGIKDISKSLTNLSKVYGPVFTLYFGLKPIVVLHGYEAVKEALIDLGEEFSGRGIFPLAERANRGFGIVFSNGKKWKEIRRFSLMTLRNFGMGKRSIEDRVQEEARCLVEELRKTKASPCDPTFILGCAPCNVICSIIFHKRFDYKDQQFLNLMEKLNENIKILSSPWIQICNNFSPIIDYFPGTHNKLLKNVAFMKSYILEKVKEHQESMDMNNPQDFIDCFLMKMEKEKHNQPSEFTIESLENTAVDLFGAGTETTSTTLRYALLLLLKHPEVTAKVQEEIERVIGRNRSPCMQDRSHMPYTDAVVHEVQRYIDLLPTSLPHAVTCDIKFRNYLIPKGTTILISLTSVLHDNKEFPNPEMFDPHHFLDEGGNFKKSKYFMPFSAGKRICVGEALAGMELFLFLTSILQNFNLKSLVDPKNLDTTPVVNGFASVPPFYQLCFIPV

[6] = target: T1, Carboxy-terminal domain RNA polymerase II polypeptide A small phosphatase 1 (Homo sapiens, UniProt Q9GZU7); assay: inhibitors of CTDSP1, concentration-response testing, biochemical assay, absorbance-based, actives from ultra-high-throughput screening (AID 540297); type: functional
T1 sequence (Q9GZU7 whole entry): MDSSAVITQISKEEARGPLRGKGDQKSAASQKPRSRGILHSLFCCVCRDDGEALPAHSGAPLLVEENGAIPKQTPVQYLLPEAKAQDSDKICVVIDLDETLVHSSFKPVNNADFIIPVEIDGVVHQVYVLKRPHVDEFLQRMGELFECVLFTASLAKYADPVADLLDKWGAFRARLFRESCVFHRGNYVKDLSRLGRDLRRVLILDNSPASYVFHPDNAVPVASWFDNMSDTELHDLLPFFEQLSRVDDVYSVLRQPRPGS

[7] = cytotoxicity toward DRD oncogenic fibroblasts, dose response, cell-based, non-viral oncogenic, luminescence (AID 1934); type: functional; settings: Homo sapiens
[8] = tested on: BJ; assay: cells; type: functional, cell-based; settings: Homo sapiens
[9] = tested on: BJ; assay: cytotoxicity toward BJ-TERT fibroblasts, dose response, cell-based, RAS-independent, luminescence (AID 1933); type: functional; settings: Homo sapiens
[10] = tested on: BJ; assay: cytotoxicity toward BJ-TERT-LT-ST fibroblasts, dose response, cell-based, RAS-independent, luminescence (AID 1935); type: functional; settings: Homo sapiens;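 also: BJ fibroblasts immortalized with TERT plus LT and ST oncogenes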
[11] = target: Cytochrome P450 2D6 (Homo sapiens, UniProt P10635);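 also: CYP2D6 member of a cytochrome P450 panel assay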
Sequence of Cytochrome P450 2D6 (P10635 whole entry): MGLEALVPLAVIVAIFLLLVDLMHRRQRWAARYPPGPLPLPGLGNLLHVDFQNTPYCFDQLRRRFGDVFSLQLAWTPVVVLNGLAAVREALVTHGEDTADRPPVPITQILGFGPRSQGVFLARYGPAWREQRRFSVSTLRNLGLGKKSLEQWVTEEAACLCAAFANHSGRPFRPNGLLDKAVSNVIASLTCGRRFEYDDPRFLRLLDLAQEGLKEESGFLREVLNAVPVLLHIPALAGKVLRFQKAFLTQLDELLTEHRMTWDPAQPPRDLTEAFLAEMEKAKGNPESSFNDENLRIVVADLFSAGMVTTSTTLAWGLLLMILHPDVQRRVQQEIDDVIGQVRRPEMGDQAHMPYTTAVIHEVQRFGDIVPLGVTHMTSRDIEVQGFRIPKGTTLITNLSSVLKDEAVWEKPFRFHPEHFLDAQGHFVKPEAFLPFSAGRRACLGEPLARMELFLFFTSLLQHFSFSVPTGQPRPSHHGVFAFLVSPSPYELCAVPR

[12] = target: Paired box protein Pax-8 (Homo sapiens, UniProt Q06710); assay: inhibitors of PAX8-driven TPO luciferase reporter, dose response, RMG-I cells, cherry-pick (AID 687027); type: functional, cell-based;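 also: luciferase reporter driven by Pax8 target thyroperoxidase promoter measured by SteadyGlo luminescence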
Sequence of Paired box protein Pax-8 (Q06710 whole entry): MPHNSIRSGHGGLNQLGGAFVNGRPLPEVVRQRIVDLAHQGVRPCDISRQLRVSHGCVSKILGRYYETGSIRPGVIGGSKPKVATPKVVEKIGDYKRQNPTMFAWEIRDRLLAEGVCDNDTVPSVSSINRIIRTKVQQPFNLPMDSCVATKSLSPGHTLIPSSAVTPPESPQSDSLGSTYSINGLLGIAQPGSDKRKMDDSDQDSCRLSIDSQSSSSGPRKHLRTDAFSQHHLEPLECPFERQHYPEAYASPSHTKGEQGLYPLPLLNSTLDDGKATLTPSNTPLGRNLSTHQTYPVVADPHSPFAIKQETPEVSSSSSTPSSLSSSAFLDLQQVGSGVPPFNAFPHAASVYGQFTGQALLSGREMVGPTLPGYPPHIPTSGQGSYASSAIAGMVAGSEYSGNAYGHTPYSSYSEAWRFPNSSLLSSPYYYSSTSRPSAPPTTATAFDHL

[13] = P. falciparum Dd2 growth inhibitors, dose response, SYBR Green, dry powder samples, set 9 (AID 1159568); type: functional, cell-based
[14] = target: Large T antigen (Simian virus 40, UniProt P03070); type: functional, Betapolyomavirus macacae;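 also: Confirmatory-stage PubChem screen for compounds that inhibit SV40 T antigen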
Sequence of Large T antigen (P03070 whole entry): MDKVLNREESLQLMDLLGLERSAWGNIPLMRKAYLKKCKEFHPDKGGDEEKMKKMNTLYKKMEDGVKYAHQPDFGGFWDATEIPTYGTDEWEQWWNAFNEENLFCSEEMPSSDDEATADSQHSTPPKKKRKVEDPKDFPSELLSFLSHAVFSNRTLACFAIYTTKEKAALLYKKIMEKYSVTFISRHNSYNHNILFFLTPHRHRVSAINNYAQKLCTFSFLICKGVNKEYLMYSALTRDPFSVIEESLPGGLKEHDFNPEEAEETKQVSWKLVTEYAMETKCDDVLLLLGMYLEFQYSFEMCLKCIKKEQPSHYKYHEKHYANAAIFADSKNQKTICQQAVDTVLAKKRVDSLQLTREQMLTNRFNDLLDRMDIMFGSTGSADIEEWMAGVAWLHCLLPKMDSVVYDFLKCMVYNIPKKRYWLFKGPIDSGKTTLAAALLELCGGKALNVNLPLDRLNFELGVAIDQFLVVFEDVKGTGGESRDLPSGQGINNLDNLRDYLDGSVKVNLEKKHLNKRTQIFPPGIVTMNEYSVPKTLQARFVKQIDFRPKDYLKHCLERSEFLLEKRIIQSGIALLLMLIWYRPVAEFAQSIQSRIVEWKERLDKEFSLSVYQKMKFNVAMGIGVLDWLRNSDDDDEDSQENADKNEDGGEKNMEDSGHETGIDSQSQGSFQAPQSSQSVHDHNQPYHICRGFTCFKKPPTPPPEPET

[15] = target: T2, Streptokinase A (Streptococcus pyogenes serotype M1, UniProt P10520); assay: S. pyogenes streptokinase expression inhibitors, potency, dose response, plasminogen activation absorbance, OD405 (AID 1914); type: functional, Streptococcus pyogenes M1 GAS;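 also: secreted streptokinase activity via plasminogen activation per viability signal from cell pellet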
T2 sequence (P10520 whole entry): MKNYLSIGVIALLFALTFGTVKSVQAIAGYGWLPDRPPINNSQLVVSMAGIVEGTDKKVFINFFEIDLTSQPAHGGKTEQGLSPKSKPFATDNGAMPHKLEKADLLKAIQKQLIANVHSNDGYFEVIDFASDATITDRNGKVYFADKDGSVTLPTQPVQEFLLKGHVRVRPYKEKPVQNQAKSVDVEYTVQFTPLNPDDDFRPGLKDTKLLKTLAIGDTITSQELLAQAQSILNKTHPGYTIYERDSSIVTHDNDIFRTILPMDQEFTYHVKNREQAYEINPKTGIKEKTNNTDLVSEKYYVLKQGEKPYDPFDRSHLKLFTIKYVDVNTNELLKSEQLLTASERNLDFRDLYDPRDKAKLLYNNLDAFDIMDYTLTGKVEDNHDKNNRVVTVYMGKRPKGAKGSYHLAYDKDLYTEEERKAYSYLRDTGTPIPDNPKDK

[16] = target: T3, RNA-binding protein pos-1 (Caenorhabditis elegans, UniProt G5EF15); assay: inhibitors of POS-1/mex-3 RNA binding, dose response, biochemical, fluorescence polarization (AID 1964);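 also: purified POS-1 fused to maltose binding protein made in E. coli; potency of compounds blocking POS-1 binding to fluorescent RNA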
T3 sequence (G5EF15 whole entry): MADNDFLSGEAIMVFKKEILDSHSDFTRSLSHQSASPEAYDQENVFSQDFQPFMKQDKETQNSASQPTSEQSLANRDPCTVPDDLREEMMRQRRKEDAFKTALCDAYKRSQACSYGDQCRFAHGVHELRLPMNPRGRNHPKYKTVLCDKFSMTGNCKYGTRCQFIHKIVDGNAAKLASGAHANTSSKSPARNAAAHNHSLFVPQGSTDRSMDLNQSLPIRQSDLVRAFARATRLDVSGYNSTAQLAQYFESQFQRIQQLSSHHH

[17] = tested on: Streptococcus; assay: Group A Streptococcus viability loss, dose response, counter-screen for streptokinase expression inhibitor project, luminescence, BacTiterGlo (AID 1915); type: functional, organism-based;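 also: potency for reduction of bacterial viability or growth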
[18] = tested on: Streptococcus sp. 'group A'; assay: growth inhibition of control SK(-) GAS strain, dose response, counter-screen for streptokinase expression inhibitor project, luminescence, kanamycin, BacTiterGlo, confirmation (AID 1900); type: functional, organism-based
[19] = target: T4, Zinc finger protein mex-5 (Caenorhabditis elegans, UniProt Q9XUB2); assay: MEX-5/TCR-2 RNA interaction inhibitors, dose response, biochemical, C. elegans, fluorescence polarization (AID 1960)
T4 sequence (Q9XUB2 whole entry): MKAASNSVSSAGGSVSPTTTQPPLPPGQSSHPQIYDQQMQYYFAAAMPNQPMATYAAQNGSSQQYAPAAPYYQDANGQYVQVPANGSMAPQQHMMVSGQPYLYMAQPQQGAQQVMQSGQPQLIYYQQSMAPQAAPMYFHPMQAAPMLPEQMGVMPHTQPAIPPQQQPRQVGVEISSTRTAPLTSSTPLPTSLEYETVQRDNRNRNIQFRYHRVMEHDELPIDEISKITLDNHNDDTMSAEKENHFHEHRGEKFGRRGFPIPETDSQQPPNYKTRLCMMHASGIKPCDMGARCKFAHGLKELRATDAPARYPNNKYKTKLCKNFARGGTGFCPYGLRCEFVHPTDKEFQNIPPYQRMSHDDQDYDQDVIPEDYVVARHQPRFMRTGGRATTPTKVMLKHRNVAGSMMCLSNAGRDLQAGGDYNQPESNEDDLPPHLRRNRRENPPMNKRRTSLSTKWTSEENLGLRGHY

With `CC(C)(C)C(=O)N1CCN(c2ccc(NC(=O)c3ccc([N+](=O)[O-])o3)cc2)CC1` the CC50 [1] was 2.96 µM (active), the AC50 [2] was > 70 µM (inactive) and the AC50 [3] was 7.74 µM (active). For the same compound, the AC50 [4] was 2.45 µM (active).
For `O=C(Cc1ccc(Cl)cc1)Nc1ccc(N2CCN(C(=O)c3ccco3)CC2)cc1`, the AC50 [2] was > 70 µM (inactive), the AC50 [3] was 6.62 µM (active) and the AC50 [4] was > 70 µM (inactive).
For `COc1ccc(OCC(=O)NNC(=O)c2ccc(-c3ccccc3)cc2)cc1`, the AC50 [5] was “inconclusive” and the IC50 [6] was 7.77 µM (active).
For `Cc1ccc(C(=O)c2cc3ccccc3o2)cc1[N+](=O)[O-]`, the EC50 [7] was > 150 µM (not active), the EC50 [8] was > 150 µM (not active) and the EC50 [9] was > 150 µM (not active). The EC50 [10] was > 150 µM (inconclusive).
In the case of `Cn1c(=O)c2cc(S(=O)(=O)NCCC(=O)NCc3ccccc3Cl)ccc2n(C)c1=O`, the AC50 [5] is reported as “inconclusive” and the AC50 [11] is reported as 17.8 µM (inconclusive).
With `C=CC[C@H](CC(=O)N(CCO)Cc1ccccc1)C(=O)N[C@@H](COC(=O)[C@H](CC=C)CC(=O)OC(C)(C)C)Cc1c[nH]c2ccccc12` the AC50 [12] was 15.9 µM (active).
For `COc1ccc2c3c([nH]c2c1)[C@H](CO)N(C(C)=O)CC31CCN(C(=O)Nc2ccc(F)cc2F)CC1`, the AC50 [13] was 0.548 µM (active).
For `C[C@H](CO)N1C[C@H](C)[C@H](CN(C)S(=O)(=O)c2ccccc2)OCCCC[C@H](C)Oc2ccc(NC(=O)Nc3ccc4c(c3)OCO4)cc2C1=O`, the AC50 [13] was 8.9 µM (active).
For `O=C(Cc1ccccn1)N1CC2(C1)[C@H](c1ccccc1)[C@H](CO)N2C(=O)c1ccncc1`, the AC50 [13] was 30 µM (active).
With `C[C@@H]1CCCCO[C@@H](CN(C)S(=O)(=O)c2ccc(F)cc2)[C@H](C)CN([C@@H](C)CO)C(=O)c2cc(N(C)C)ccc2O1` the AC50 [13] was 7.31 µM (active).
With `C[C@@H]1CN([C@@H](C)CO)C(=O)c2ccccc2-c2ccccc2CO[C@@H]1CN(C)S(=O)(=O)Cc1ccccc1` the AC50 [13] was 21.9 µM (active).
For `N=C(N)N/N=C1C=C/C(=N\NC(N)=S)C=C\1` [AMBAZONE], the IC50 [14] was 13.7 µM (active), the CC50 [1] was > 40 µM (active) and the EC50 [15] was > 150 µM (not active). The EC50 [16] was 76.5 µM (active), the EC50 [17] was 0.35 µM (active) and the EC50 [18] was < 0.06 µM (active). For the same compound, the EC50 [19] was 9.73 µM (active).
